Reference: ChEMBL document CHEMBL5360629, “AI-Powered Virtual Screening of Large Compound Libraries Leads to the Discovery of Novel Inhibitors of Sirtuin-1” (J Med Chem, 2023)
The source made the active and inactive calls. The rule behind the calls is not given here.

Assays:
[1] = target: T1, NAD-dependent protein deacetylase sirtuin-1 (Homo sapiens) (UniProt Q96EB6); details: dose 20.0 µM
T1 sequence (whole entry): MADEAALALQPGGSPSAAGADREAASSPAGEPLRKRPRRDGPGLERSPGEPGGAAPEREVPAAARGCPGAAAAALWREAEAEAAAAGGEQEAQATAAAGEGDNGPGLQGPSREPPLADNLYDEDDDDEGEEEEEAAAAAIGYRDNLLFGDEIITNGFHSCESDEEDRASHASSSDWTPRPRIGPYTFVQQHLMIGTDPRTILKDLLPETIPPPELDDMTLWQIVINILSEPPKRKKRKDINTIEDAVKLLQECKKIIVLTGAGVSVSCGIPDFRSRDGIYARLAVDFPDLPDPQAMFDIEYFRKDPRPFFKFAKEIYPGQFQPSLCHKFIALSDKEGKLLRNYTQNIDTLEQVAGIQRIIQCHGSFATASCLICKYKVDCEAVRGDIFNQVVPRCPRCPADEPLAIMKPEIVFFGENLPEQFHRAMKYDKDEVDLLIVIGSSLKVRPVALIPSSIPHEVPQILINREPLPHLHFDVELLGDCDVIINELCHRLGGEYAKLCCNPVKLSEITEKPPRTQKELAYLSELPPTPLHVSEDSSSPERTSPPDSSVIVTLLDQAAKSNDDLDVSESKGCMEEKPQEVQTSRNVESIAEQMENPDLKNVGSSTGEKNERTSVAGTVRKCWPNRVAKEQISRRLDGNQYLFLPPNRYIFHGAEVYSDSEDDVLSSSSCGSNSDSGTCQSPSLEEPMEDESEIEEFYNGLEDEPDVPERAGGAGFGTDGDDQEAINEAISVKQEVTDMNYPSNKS
Description: Binding affinity to human recombinant truncated Sirtuin-1 expressed in Escherichia coli assessed as change in melting temperature at 20 uM by SYPRO orange dye based thermal shift assay

[2] = target: Carbonic anhydrase (Homo sapiens) (UniProt P00918+P43166+P00915+P07451+P23280+O43570+Q9ULX7+Q16790+P22748+Q8N1Q1+Q9Y2D0+P35218); assay: Binding affinity to carbonic anhydrase (unknown origin) assessed as change in melting temperature incubated for 15 mins by Sypro orange staining based thermal scanning analysis; format: protein assay; details: dose 0.01-1000 µM
[3] = target: T2, NAD-dependent protein deacetylase sirtuin-1 (Homo sapiens, UniProt Q96EB6); assay: Inhibition of Sirtuin-1 (unknown origin) incubated for 30 mins by luminogenic SIRT-Glo assay
T2 sequence (Q96EB6 whole entry): T1 sequence (whole entry)

Row | ΔTm [1] [°C] | Activity [2] | IC50 [3] [µM] | Structure (SMILES)
1 | 1.8 | Dose-Dependent Effect | 3.4 | O=C(NCCc1c[nH]c2ccccc12)c1ccccc1O
2 | 12.9 |  |  | O=C(CCc1ccccc1O)NCCc1c[nH]c2ccccc12
3 | 2.8 |  |  | O=C(CCc1c[nH]c2ccccc12)NNC(=O)CCc1c[nH]c2ccccc12

Further lines, the compound ahead of its results:

Row | Structure (SMILES) | ΔTm [1] [°C] | Activity [2] | IC50 [3] [µM]
4 | O=C(Nc1ccccc1)Nc1ccc(NC(=O)c2ccc(Br)cc2)cc1 | 2.1 |  | 
5 | NC(=O)c1ccc(N2CCN(C(c3ccccc3)c3ccccc3)CC2)c([N+](=O)[O-])c1 | 1 |  | 
6 | COc1ccc(N2CCN(c3nc(-c4ccccc4)nc4ccccc34)CC2)cc1 | 1.6 | inactive | 40
7 | O=S(=O)(NCCc1c[nH]c2ccccc12)c1cc(Cl)cc(Cl)c1 | 1 |  | 
